In one test the test system is Human C3-[…]. The experiment in a line: C3 deposition assay, human serum on mannan-coated plates. It counts as biochemical. As for the experimental part: 3. C3 Deposition Assay (Human, Rat, Mouse, Dog, Mini-Pig)
The C3 deposition assay was conducted essentially as described (reference). Multi well plates (Greiner-Nunc 384 Maxi Sorp #464718) were coated over night with Mannan from Saccharomyces cerevisiae (Sigma M7504, 10 μg/mL in 0.05 M carbonate-bicarbonate buffer, pH 9.6) at 4° C. Wells were washed three times with TBS and subsequently incubated for 2 hours with 50 μL of 1% bovine serum albumin (BSA) in Tris-buffered saline (TBS) at 37° C. in order to block non-specific binding. After this step and each of the following incubation steps wells were washed three times with C3 wash buffer (TBS; 0.05% Tween 20; 5 mM CaCl2). […] When appropriately developed the color reaction was stopped by addition of 25 μL of stop solution (Sigma S5814) and quantified on a photometer by measuring absorption at a wavelength of 450 nm. Antibodies were diluted in C3 wash buffer supplemented with 0.5% BSA.

The target of another test is T1, human MASP2 (Homo sapiens, UniProt O00187).
T1 construct: Ig-kappa secretion signal (N, cleaved yes); made in house; host or cells: HEK293 (ATCC No. CRL-1573)
The experiment in a line: Biochemical human MASP2 assay (FRET substrate). Conditions: average IC50. From the text:
(§1) 2.1 Recombinant Expression and Protein Production of Recombinant Human MASP1 and MASP2 Active Proteases.
(§2) The MASP1 or MASP2 expression vectors were transfected into the HEK293 (ATCC No. CRL-1573) cell line using Lipofectamine LTX® Reagent (Thermo-Fischer), as described by the manufacturer. […] The MASP1 and MASP2 proteins were purified from the conditioned media by affinity chromatography on Ni-NTA Superflow resin (Qiagen) as described by the manufacturer.
2.3 Biochemical Human MASP2 Assay
(§3) Recombinant human MASP2 enzyme produced in the HEK 293 cells was diluted in the reaction buffer (50 mM HEPES pH 8,0; 100 mM NaCl; 0.01% CHAPS; 0.5 mM Gluthathione) to the concentration of 20 nM and 25 μl was transferred into each single well of 384-well white microtiter plate (Greiner Bio One 781075). 1 μl of the inhibitor compound solution (dissolved in DMSO, at the corresponding concentration) or pure DMSO as a control was added to the same wells. […] The microtiter plate was incubated for 60-120 min at the temperature of 32 C. The increase of fluorescence intensity was measured in appropriate fluorescence plate reader (e.g. TECAN Ultra) using excitation wavelength of 340 nm and emission wavelength of 490 nm. IC50 values were calculated from percentage of inhibition of human MASP2 activity as a function of test compound concentration.

The target in another test is T2, human MASP1 (Homo sapiens, UniProt P48740).
T2 construct: Ig-kappa secretion signal (N, cleaved yes); made in house; host or cells: HEK293 (ATCC No. CRL-1573)
T2 sequence (P48740 297-448): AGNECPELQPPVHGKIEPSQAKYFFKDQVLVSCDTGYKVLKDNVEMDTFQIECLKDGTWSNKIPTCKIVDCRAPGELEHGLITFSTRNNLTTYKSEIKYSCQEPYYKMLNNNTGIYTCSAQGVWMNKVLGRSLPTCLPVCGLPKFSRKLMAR
T2 sequence (P48740 449-699): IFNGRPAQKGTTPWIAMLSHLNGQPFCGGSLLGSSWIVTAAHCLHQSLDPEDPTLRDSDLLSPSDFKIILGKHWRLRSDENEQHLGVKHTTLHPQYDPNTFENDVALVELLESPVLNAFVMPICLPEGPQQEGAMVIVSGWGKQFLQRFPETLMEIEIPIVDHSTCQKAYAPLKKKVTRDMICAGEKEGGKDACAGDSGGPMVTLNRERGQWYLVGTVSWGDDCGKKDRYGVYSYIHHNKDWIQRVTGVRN
The experiment in a line: Biochemical human MASP1 assay (FRET substrate). Conditions: average IC50.
Text: as §1, §2
2.2 Biochemical Human MASP1 Assay
as §3, with “MASP1” for “MASP2”, “320” for “340”, “420” for “490”

For a further test, the target named is T3, rat MASP1 (Rattus norvegicus, UniProt Q8CHN8).
T3 construct: Ig-kappa secretion signal (N, cleaved yes); made in house; host or cells: HEK293 (ATCC No. CRL-1573)
T3 sequence (Q8CHN8 302-453 limits assumed): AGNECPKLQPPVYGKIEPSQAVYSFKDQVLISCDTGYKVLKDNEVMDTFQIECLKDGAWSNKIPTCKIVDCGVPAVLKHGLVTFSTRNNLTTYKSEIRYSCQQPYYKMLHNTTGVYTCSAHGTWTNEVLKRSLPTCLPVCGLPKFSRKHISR
T3 sequence (Q8CHN8 454-704 limits assumed): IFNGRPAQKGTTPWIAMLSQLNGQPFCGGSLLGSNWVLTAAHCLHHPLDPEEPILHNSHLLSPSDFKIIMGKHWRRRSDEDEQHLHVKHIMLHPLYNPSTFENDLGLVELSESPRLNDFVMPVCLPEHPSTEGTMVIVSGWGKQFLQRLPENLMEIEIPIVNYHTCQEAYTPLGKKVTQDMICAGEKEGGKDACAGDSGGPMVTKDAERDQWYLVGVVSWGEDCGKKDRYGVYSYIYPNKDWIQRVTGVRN
The experiment in a line: Biochemical rat MASP1 assay (FRET substrate). Conditions: average IC50; recombinant rat MASP1, FRET substrate. From the text:
4. Biochemical Rat MASP-1 and MASP-2 Assay
4.1 Recombinant Expression and Protein Production of Recombinant Human and Rat MASP1 and MASP2 Active Proteases.
A truncated cDNA sequence of rat MASP1 encoding the fragment corresponding to the amino acids 302-704 with an C-terminal His Tag and N-terminal Ig-kappa secretion signal (SEQ ID No: 4) was subcloned into the mammalian expression vector pcDNA3.1 (Invitrogen).
The MASP1 or MASP2 expression vectors were transfected into the HEK293 (ATCC No. CRL-1573) cell line using Lipofectamine LTX® Reagent (Thermo-Fischer), as described by the manufacturer. The mature form of the recombinant rat MASP1 and MASP2 proteases were secreted into the culture medium. The MASP1 and MASP2 proteins were purified from the conditioned media by affinity chromatography on Ni-NTA Superflow resin (Qiagen) as described by the manufacturer.
4.2 Biochemical Rat MASP1 Assay.
Recombinant rat MASP1 enzyme produced in the HEK 293 cells was diluted in the reaction buffer (50 mM HEPES pH 8,0; 100 mM NaCl; 0.01% CHAPS; 0.5 mM Gluthathione) to the concentration of 4 nM and 25 μl was transferred into each single well of 384-well white microtiter plate (Greiner Bio One 781075). 1 μl of the inhibitor compound solution (dissolved in DMSO, at the corresponding concentration) or pure DMSO as a control was added to the same wells. The enzymatic reaction was initiated by addition of 25 μl of 40 μM solution of the FRET substrate Dabcyl-[…]-Glu(Edans)-NH2 (SEQ ID NO: 8); (Dabcyl—4-((4-(dimethylamino)phenyl)azo)benzoic acid; Edans—5-[(2-Aminoethyl) amino]naphthalene-1-sulfonyl; custom synthesis by Jerini Peptide Technologies, Berlin) in the reaction buffer. The microtiter plate was incubated for 60-120 min at the temperature of 32 C. The increase of fluorescence intensity was measured in appropriate fluorescence plate reader (e.g. TECAN Ultra) using excitation wavelength of 340 nm and emission wavelength of 490 nm. IC50 values were calculated from percentage of inhibition of rat […] activity as a function of test compound concentration.

The mark [1] stands for this setting: average IC50, read-out: Human C3-DEPOSITION SERUM IC50.

Read-outs that look alike come from different tables or passages of the source. Bridge positions count the residues as written; N and C are the ends. Square brackets hold non-standard residues; d marks the D form. Peptide text beside a SMILES is read from it. Pro(4-spirocPr) = O=C(O)[C@@H]1CC2(CC2)CN1; Oic = O=C(O)[C@@H]1C[C@@H]2CCCC[C@@H]2N1; tBuAla = CC(C)(C)C[C@H](N)C(=O)O; Pen = CC(C)(S)[C@H](N)C(=O)O; ΔPro = O=C(O)[C@@H]1C=CCN1; Sar = CNCC(=O)O

T1 sequence (O00187 297-444): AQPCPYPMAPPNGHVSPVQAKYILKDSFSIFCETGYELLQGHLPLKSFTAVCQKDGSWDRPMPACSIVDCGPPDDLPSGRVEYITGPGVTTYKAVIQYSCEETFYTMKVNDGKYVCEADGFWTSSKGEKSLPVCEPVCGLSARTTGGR
T1 sequence (O00187 445-686): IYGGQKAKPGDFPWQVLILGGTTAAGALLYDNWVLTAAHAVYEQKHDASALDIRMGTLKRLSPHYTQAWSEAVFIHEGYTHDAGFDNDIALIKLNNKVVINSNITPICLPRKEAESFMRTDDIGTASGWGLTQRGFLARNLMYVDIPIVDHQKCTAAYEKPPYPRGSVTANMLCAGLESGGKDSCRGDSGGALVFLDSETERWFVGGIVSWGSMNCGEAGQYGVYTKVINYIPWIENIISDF

The IC50 is the concentration that gives 50% inhibition. Turning to `CC[C@H](C)[C@H](NC(=O)[C@@H]1CSSC[C@H](NC(=O)[C@@H](NC(=O)[C@@H](N)C2CCOCC2)[C@@H](C)CC)C(=O)N[C@@H](CO)C(=O)N[C@@H](CCCNC(=N)N)C(=O)N[C@@H](CO)C(=O)N[C@@H](CC(C)C)C(=O)N2CCC[C@H]2C(=O)N2[C@@H](C[C@@H]3CCCC[C@@H]32)C(=O)N[C@@H]([C@@H](C)CC)C(=O)N1)C(=O)O` (single isomer, unassigned) [Example 184], the IC50 in the test with Human C3-[…] (average IC50, read-out: Human C3-[…] IC50) is 43 nM; against human MASP2, 200 nM; on human MASP1, 4.7 nM.

As to `CC[C@H](C)[C@H](NC(=O)[C@H](C)N)C(=O)N[C@H]1CSSC(C)(C)[C@@H](C(=O)N[C@H](C(=O)N2CCC[C@H]2C(=O)N[C@@H](CC(=O)O)C(N)=O)[C@@H](C)CC)NC(=O)[C@H]([C@@H](C)CC)NC(=O)[C@@H]2CC3(CC3)CN2C(=O)[C@@H]2CCCN2C(=O)[C@H](CC(C)(C)C)NC(=O)[C@H](CO)NC(=O)[C@H](CCCNC(=N)N)NC(=O)[C@H](CO)NC1=O` [Example 45, AI-C+SRS-((tBu)A)-P-((6S)-5-Azaspiro[2.4]heptane-6-carboxylic acid)-I(Pen)+IPD-NH2] (H-AICSRS[tBuAla]P[Pro(4-spirocPr)]I[Pen]IPD-NH2; disulfide 3-11), the IC50 with Human C3-[…] (setting [1]) is 18.6 nM; against human MASP2 it was 24.5 nM; on human MASP1, 1.83 nM; on rat MASP1 it was 40 nM.

Take `CC[C@H](C)[C@@H]1NC(=O)[C@@H]2CCCN2C(=O)[C@@H]2CCCN2C(=O)[C@H](CC(C)(C)C)NC(=O)[C@H](CO)NC(=O)[C@H](CCCNC(=N)N)NC(=O)[C@H](CO)NC(=O)[C@@H](NC(=O)[C@@H](NC(=O)C(C)(C)CN)[C@@H](C)CC)CSSC(C)(C)[C@@H](C(=O)N[C@H](C(=O)N2CCC[C@H]2C(=O)N[C@@H](CC(=O)O)C(N)=O)[C@@H](C)CC)NC1=O` [Example 166, (3-Amino-2,2-dimethylpropionic acid)-IC+SRS-((tBu)A)-PPI-(Pen)+IPD-NH2]: the IC50 with Human C3-[…] (setting [1]) was 33.4 nM; at human MASP1, 4.2 nM.

With `CC[C@H](C)[C@H](NC(=O)[C@H](C)N)C(=O)N[C@H]1CSSC(C)(C)[C@@H](C(=O)N[C@H](C(=O)N2CCC[C@H]2C(=O)N[C@@H](CC(=O)O)C(=O)O)[C@@H](C)CC)NC(=O)[C@H]([C@@H](C)CC)NC(=O)[C@@H]2C[C@@H]3CCCC[C@@H]3N2C(=O)[C@@H]2C=CCN2C(=O)[C@H](CC(C)C)NC(=O)[C@H](CO)NC(=O)[C@H](CCCNC(=N)N)NC(=O)[C@H](CO)NC1=O` [Example 237] (H-AICSRSL[ΔPro][Oic]I[Pen]IPD-OH; disulfide 3-11), the figures for the IC50 in the test on Human C3-[…] (setting [1]), on human MASP2 and at human MASP1 were 14.7 nM, 64 nM and 9.3 nM, respectively.

On to `CC[C@H](C)[C@H](NC(=O)CNC)C(=O)N[C@H]1CSSC(C)(C)[C@@H](C(=O)N[C@H](C(=O)N2CCC[C@H]2C(N)=O)[C@@H](C)CC)NC(=O)[C@H]([C@@H](C)CC)NC(=O)[C@@H]2C[C@@H]3CCCC[C@@H]3N2C(=O)[C@@H]2CCCN2C(=O)[C@H](CC(C)C)NC(=O)[C@H](CO)NC(=O)[C@H](CCCNC(=N)N)NC(=O)[C@H](CO)NC1=O` [Example 376] (H-[Sar]ICSRSLP[Oic]I[Pen]IP-NH2; disulfide 3-11), for which the IC50 in the test with Human C3-[…] (setting [1]) was 13.8 nM; against human MASP2 it was 35 nM; against human MASP1, 1.1 nM.

For the molecule “(2-Hydroxyacetyl)-IC+SRS-((tBu)A)-PPI-(Pen)+IPD-NH2 [Example 300]”, the IC50 with Human C3-[…] (setting [1]) stood at 59.8 nM.

Consider “((N-Me)G)-IC+SRSLP-(Oic)-I-(Pen)+I-((5-Azaspiro[2.4]heptane-1-carboxylic acid)OH [Example 164]”, for which the IC50 with Human C3-[…] (setting [1]) was determined as 81.6 nM.

As for “((N-Me)G)-IC+SRSLP-(Oic)-I-(Pen)+IPD-NH2 [Example 165]”, the IC50 in the test on Human C3-[…] (setting [1]) is 36 nM.

Take “AIC+SRS-((tBu)A)-PPI-((N-Me)C)+IPD-NH2 (HCl Salt) [Example 30]”: the IC50 in the test on Human C3-[…] (setting [1]) was 36.1 nM.

Consider “AIC+SRSLP-(Oic)-I-(Pen)+IPN-OH [Example 418]”, for which the IC50 with Human C3-[…] (setting [1]) was found to be 53.9 nM.

With “IC+SRSLP-(Oic)-I-(Pen)+IPD-OH [Example 347]”, the IC50 with Human C3-[…] (setting [1]) came to 151 nM.

For the molecule “N-[(5aS,11S,14S,17S,20S,23R,28R,31S,33aS)-31-[(2S)-butan-2-yl]-17-(3-carbamimidamidopropyl)-11-(2,2-dimethylpropyl)-14,20-bis(hydroxymethyl)-27,27-dimethyl-23-({N-[(morpholin-4-yl)acetyl]-L-isoleucyl}amino)-5,10,13,16,19,22,30,33-octaoxooctacosahydro-1H,5H,10H-dipyrrolo[2,1-j:2′,1′][1,2,5,8,11,14,17,20,23,26]dithiaoctaazacyclononacosine-28-carbonyl]-L-isoleucyl-L-prolyl-L-alpha-asparagine [Example 283]”, the IC50 in the test with Human C3-[…] (setting [1]) amounted to 69.8 nM.
